Measured values published in US20030176381A1, “Hyaluronic acid in the treatment of cancer” (priority 2002, published 2003).

Legend:
[1] = system: MCF-7 human breast cancer cells; test: MTT cell proliferation, MCF-7; type: cell-based
Method: (§1) Cell proliferation was measured using dimethylthiazoldiphenyltetrazolium (MTT) reduction (Mosman et al. J. Immunol. Methods 65:55, 1983). Unless otherwise stated, 100 Al of 5 mg of MTT (Sigma-Aldrich, St. Louis, Mo., USA) dissolved in 1 ml of PBS was added into each well. After 4 h, medium was removed from each well, 1.0 ml of acid-isopropanol (0.04 N HCI in isopropanol) was added and reduced MTT was solubilized by mixing. Absorbency of the reaction product was measured at a wavelength of 570 nm using a multiplate spectrophotometer reader (Elx800 Model, Bio-TEK Instruments Inc., Winooski, Vt., USA).
(§2) Unless stated otherwise 1.0 x 10^5 cells/ml were seeded in 6-well flat-bottom tissue culture plates and were maintained for 48 h at 370 C in a 5% CO2 atmosphere.
(§3) PC-3, LNCAP and Du-145 human prostate cancer cells; MCF-7 human breast cancer cells; HT-1080 human fibrosarcoma cancer cells; B16F1 murine melanoma cells; and, UMUC-3, RT-4, HT-1376 and T-24 human bladder cancer cells were incubated with 0.8, 8.0 and 80 μg/ml of 5.0-7.5 x 10^5 Da HA (Table 2).
(§4) Unless stated otherwise 2.0 x 10^4 cells/ml were seeded in 24-well plates and were maintained for 48 h at 370 C in a 5% CO2 atmosphere. MTT was used at 50 μl per well.
(§5) T-24 human bladder cancer cells, PC-3 and Du-145 human prostate cancer cells, and MCF-7 human breast cancer cell were incubated with saline or with 80.0 jg/ml of 5.0-7.5 x 105 Da HA +1.0 μg/ml of M-DNA (Table 4).
MTT was used at 50 µl per well.
Example 8 s HA potentiation of the anti-neoplastic effect ofchemotherapeutic drugs RT-4 human bladder cancer cells and MCF-7 human breast cancer cells were incubated as in Example 6 with 0.0, 0.008 or 0.08 pg/ml of 5.0-7.5 x 10^5 Da HA +0.1 jg/ml of CIS, +1.0 jg/ml of 5-FU or +10 jig/ml of 5-FU (Table 7).
(§6) CD44 expression and the inhibition of proliferation by 5.0-7.5 x 10^5 Da HA were measured using Jurkat T cell leukemia cells; MCF-7 human breast cancer cells; RT-4, T-24, HT-1376 and UMUC-3 human bladder cancer cells; and, PC-3, Du-145 and LNCaP prostate cancer cells (Table 8)

[2] = system: Jurkat T cell leukemia cells; test: MTT cell proliferation, Jurkat T; type: cell-based; details: HA 80 μg/ml
Method: as §1, §2, §6

[3] = system: IL-6 production by peripheral blood mononuclear cells; test: IL-6 production by PBMCs (ELISA); type: cell-based, humans
Method: Peripheral blood mononuclear cells (hereinafter, “PBMCs”) were isolated from the blood of 5 healthy humans by Ficoll-Hypaque (Amersham Pharmacia Biotech, Baie d'Urfee, Quebec, Canada) density gradient centrifugation of whole blood. Stimulation of IL-6 and IL-12 production by the immune system cells was determined using the appropriate commercial ELISA (BioSource, Camarillo, CA, USA). Results are expressed as the “fold” (x) increases in cytokine production by treated cells compared to control cells.
PBMCs were incubated with 1 mg/ml of 5.0-7.5 x 105 Da and production of IL-6 and IL-12 was determined (Table 9).
PBMCs, isolated from the blood of individual #1, were incubated with 0.008, 0.04, 0.2 and 1 mg/ml of 5.0-7.5 x 10^5 Da (Table 10)

[4] = system: LNCaP human prostate cancer cells; test: MTT cell proliferation, LNCaP; type: cell-based; details: 48 h
Method: as §1, §2, §3
(§7) PC-3. LNCaP and Du-145 human prostate cancer cells were incubated with 8.0 jg/ml of 5.0-7.5 x 105 Da HA or of <1.5 x 10^4 Da HA (Table 3).
as §6

[5] = system: HT-1376 human bladder cancer cells; test: MTT cell proliferation, HT-1376; type: cell-based
Method: as §1, §2, §3, §4
(§8) HT-1376, RT-4 and T-24 human bladder cancer cells were incubated with 0.8 pg/ml of 5.0-7.5 x 10^5 Da HA +1.0 ug/ml of MCC (Table 5).
as §6

[6] = system: HT-1080 human fibrosarcoma cancer cells; test: MTT cell proliferation, HT-1080; type: cell-based; details: 48 h
Method: as §1, §2, §3

[7] = system: UMUC-3 human bladder cancer cells; test: MTT cell proliferation, UMUC-3; type: cell-based; details: 48 h
Method: as §1, §2, §3, §6

[8] = system: MCF-7 human breast cancer cells; test: MTT cell proliferation, MCF-7; type: cell-based; details: MCF-7 (2.5 X 10^5 cells/ml)
[9] = system: T-24 human bladder cancer cells; test: MTT cell proliferation, T-24; type: cell-based
Method: as §1, §2, §3, §4, §5, §8, §6

[10] = system: Du-145 human prostate cancer cells; test: MTT cell proliferation, Du-145; type: cell-based
Method: as §1, §2, §3, §7, §4, §5, §6

[11] = HA 80.0 μg/ml alone (+ saline), 24-well, Example 6
[12] = HA at 0.8 μg/ml alone (+ saline), 24-well, Example 6

Substance: Hyaluronic acid [5.0-7.5 × 10^5 Da HA]
- % INHIBITION of cell proliferation ([1]; HA 0.008 μg/ml alone (+ saline)): 12%
- % INHIBITION of cell proliferation ([1]; HA 0.08 μg/ml alone (+ saline)): 12%
- % INHIBITION of cell proliferation ([1]; HA 0.8 μg/ml, 48 h): 19%
- % INHIBITION of cell proliferation ([1]; HA 8.0 μg/ml, 48 h): 24%
- % INHIBITION of cell proliferation [1, 11]: 35%
- % INHIBITION of cell proliferation ([1]; HA 80.0 μg/ml, 48 h): 35%
- % inhibition of proliferation [2]: 0%
- IL-6 production, fold increase vs control cells ([3]; PBMCs of individual 1, HA 1 mg/ml): 3.8x
- IL-6 production, fold increase vs control cells ([3]; PBMCs of individual 2, HA 1 mg/ml): 1.8x
- IL-6 production, fold increase vs control cells ([3]; PBMCs of individual 3, HA 1 mg/ml): 4.1x
- IL-6 production, fold increase vs control cells ([3]; PBMCs of individual 4, HA 1 mg/ml): 1.4x
- IL-6 production, fold increase vs control cells ([3]; PBMCs of individual 5, HA 1 mg/ml): 6.3x
- IL-6 production, fold increase vs control cells ([3]; PBMCs of individual #1, HA 0.008 mg/ml): 2.4x
- IL-6 production, fold increase vs control cells ([3]; PBMCs of individual #1, HA 0.040 mg/ml): 3.5x
- IL-6 production, fold increase vs control cells ([3]; PBMCs of individual #1, HA 0.200 mg/ml): 2.9x
- % INHIBITION of cell proliferation ([4]; HA 0.8 μg/ml): 7%
- % INHIBITION of cell proliferation ([4]; HA 8.0 μg/ml, listed as 0.5-7.5 × 10^5 Da HA): 13%
- % INHIBITION of cell proliferation ([5]; HA 0.8 μg/ml, 48 h): 0%
- % INHIBITION of cell proliferation ([5]; HA 8.0 μg/ml, 48 h): 3%
- % INHIBITION of cell proliferation ([5]; HA 80.0 μg/ml, 48 h): 1%
- % INHIBITION of cell proliferation [5, 12]: 3%
- % INHIBITION of cell proliferation ([6]; HA 0.8 μg/ml): 4%
- % INHIBITION of cell proliferation ([6]; HA 8.0 μg/ml): 4%
- % INHIBITION of cell proliferation ([6]; HA 80.0 μg/ml): 36%
- % INHIBITION of cell proliferation ([7]; HA 0.8 μg/ml): 10%
- % INHIBITION of cell proliferation ([7]; HA 8.0 μg/ml): 10%
- % INHIBITION of cell proliferation ([7]; HA 80.0 μg/ml): 2%
- % INHIBITION of cell proliferation ([8]; HA 0.01 μg/ml alone): 6%
- % INHIBITION of cell proliferation ([8]; HA 0.1 μg/ml alone): 5%
- % INHIBITION of cell proliferation ([9]; HA 0.8 μg/ml, 48 h): 10%
- % INHIBITION of cell proliferation ([9]; HA 8.0 μg/ml, 48 h): 8%
- % INHIBITION of cell proliferation [9, 11]: 0%
- % INHIBITION of cell proliferation ([9]; HA 80.0 μg/ml, 48 h): 0%
- % INHIBITION of cell proliferation [9, 12]: 8%
- % INHIBITION of cell proliferation ([10]; HA 0.8 μg/ml, 48 h): 6%
- % INHIBITION of cell proliferation ([10]; HA 8.0 μg/ml, 48 h, listed as 0.5-7.5 × 10^5 Da HA): 15%
- % INHIBITION of cell proliferation [10, 11]: 38%
- % INHIBITION of cell proliferation ([10]; HA 80.0 μg/ml, 48 h): 38%
